Measurements published in patent publication US20090004101A1, “Method and Means for Enhanced Pulmonary Drug Delivery” (UNIVERSITY COLLEGE CARDIFF CONSULTANTS LIMITED, priority 2004, published 2009).

Key:
[1] = EDTA co-administered; cited from earlier work
[2] = Pulmonary absorption of human insulin co-administered intratracheally with P2Y receptor agonists to anesthetized rabbits (plasma insulin by radioimmunoassay); assay type: in vivo, New Zealand white rabbits; conditions: for Effect of the P2Y agonist on t1/2, Cmax and F of insulin administered to the lungs: co-administered with insulin to rabbit lungs, summary in words; for Cmax of insulin / F (bioavailable fraction) of insulin / t1/2 of insulin: rabbit, mean±SD, n=4
Method: Briefly, New Zealand white rabbits were anesthetized with Hypnovel (Roche, Welwyn Garden City, UK), 0.3 mg/kg i.v. via cannula in the ear, and Hypnorrn (Janssen Animal Health, Grove, Oxford, UK), 0.1 mg/kg via intramuscular injection. Once intubated with a polyethylene endotracheal tube (i.d. 4 mm, o.d. 5 mm; Portex, UK) coated with a layer of xylocalne gel (Astra Pharmaceuticals, Kings Langley, UK), a second, smaller polyethylene dosing tube was inserted inside the endotracheal tube to the point of the bifurcation of the trachea.

[3] = insulin 10 U/kg intratracheal with Up4U 0.2 mg (2.0 mg/mL)
[4] = insulin 10 U/kg intratracheal with Up4U 0.62 mg (6.2 mg/mL)

| Cmax of insulin ([2]; insulin 10 U/kg intratracheal with UTP 0.34 mg (3.4 mg/mL)) | Cmax of insulin ([2]; insulin 10 U/kg intratracheal with UTP 1.5 mg (15 mg/mL)) | Cmax of insulin [2, 3] | F (bioavailable fraction) of insulin [2, 3] | t1/2 of insulin [2, 3] | Cmax of insulin [2, 4] | F (bioavailable fraction) of insulin [2, 4] | t1/2 of insulin [2, 4] | SMILES | Effect on uptake of calcitonin following intratracheal administration to the lungs [1] | Effect of the P2Y agonist on t1/2, Cmax and F of insulin administered to the lungs [2] |
| --- | --- | --- | --- | --- | --- | --- | --- | --- | --- | --- |
|  |  |  |  |  |  |  |  | O=C(O)CN(CCN(CC(=O)O)CC(=O)O)CC(=O)O [EDTA] | did increase |  |
| 828 ± 42.4 μU/mL | 1515 ± 297 μU/mL |  |  |  |  |  |  | O=c1ccn([C@@H]2O[C@H](COP(=O)(O)OP(=O)(O)OP(=O)(O)O)[C@@H](O)[C@H]2O)c(=O)[nH]1 [UTP, uridine 5′-triphosphate] |  | increase the half life (t1/2), maximal plasma concentration (Cmax) and the overall bioavailable fraction (F) of insulin |
|  |  | 531 ± 89.5 μU/mL | 8.07 ± 3.40% | 1.33 ± 0.7102 h | 655 ± 46.17 μU/mL | 5.47 ± 1.03% | 0.798 ± 0.0372 h | O=c1ccn([C@@H]2O[C@H](COP(=O)(O)OP(=O)(O)OP(=O)(O)OP(=O)(O)OC[C@H]3O[C@@H](n4ccc(=O)[nH]c4=O)[C@H](O)[C@@H]3O)[C@@H](O)[C@H]2O)c(=O)[nH]1 [Up4U, P^1,P^4-di(uridine 5′-)tetraphosphate] |  | increase the half life (t1/2), maximal plasma concentration (Cmax) and the overall bioavailable fraction (F) of insulin |
